{"source": "patent US8466172B2", "about": "“Stabilization of hypoxia inducible factor (HIF) alpha” (FibroGen, Inc., priority 2001, dated 2013)", "key": {"[1]": {"system": "vascular endothelial growth factor (VEGF) gene expression", "experiment": "VEGF gene expression in liver and kidney, quantitative PCR", "format": "in vivo", "settings": "mouse, 200 mg/kg/day oral gavage, 2.5 days, four hours after final dose", "quoted_text": "Four hours after the final dose, animals were anesthetized with isoflurane and a blood sample was collected from the abdominal vein. […] The mice were then sacrificed and approximately 150 mg of liver and each kidney were isolated and stored in [sequence] solution (Ambion) at −20° C.\nRNA isolation was carried out using the following protocol. Tissue slices were cut into small pieces, 1.75 ml of RLT lysis buffer (RNEASY kit; Qiagen) was added, and the pieces were homogenized for about 20 seconds using a rotor-stator POLYTRON homogenizer (Kinematica, Inc., Cincinnati Ohio). […] The RNA was eluted into 80 μL of water and quantitated with RIBOGREEN reagent (Molecular Probes, Eugene Oreg.). […] The absorbance at 260 and 280 nm was measured to determine RNA purity and concentration.\ncDNA synthesis was performed using 1W random hexamer primers, 1 μg of total RNA, and OMNISCRIPT reverse transcriptase (Qiagen), according to the manufacturer's instructions. […] Analysis of the relative level of vascular endothelial growth factor (VEGF) gene expression was performed by quantitative PCR using a [sequence] […]\nThe relative level of 18S ribosomal RNA gene expression was measured as a control. Quantitative PCR was performed using a [sequence] […]"}, "[2]": {"system": "Wistar rats, toxic-ischemic liver injury", "settings": "CCl4 + CPD, 9 weeks, 60 mg/kg intraperitoneal twice daily; cited from earlier work"}, "[3]": {"system": "Wistar rats, toxic-ischemic liver injury", "experiment": "Toxic-ischemic liver injury (CCl4)", "format": "in vivo, rat", "settings": "9 weeks", "protocol": "The model of toxic-ischemic liver injury was described in Bickel et al. (supra). Briefly, male Wistar rats (212-320 g) either received 1 ml/kg carbon tetrachloride (CCl4) in olive oil (1:1) by gavage twice weekly for nine weeks (n=140) or received no treatment (controls; n=10). Additionally, a group of animals receiving CCl4 (n=60) also received compound P. The compound was administered by intraperitoneal injection twice daily at 60 mg compound/2 ml saline/kg body weight. After 9 weeks, the animals were sacrificed and the liver was weighed. Bilirubin, alanine transaminase, alkaline phosphatase, albumin, and total bile acids in serum were determined using commercially available kits."}, "[4]": {"system": "vascular endothelial growth factor (VEGF)", "experiment": "VEGF expression in conditioned media, QUANTIKINE immunoassay", "format": "cell-based, human", "settings": "HFF, 293A and Hep3B cells", "protocol": "When cell layers reached confluence, the media was replaced with OPTI-MEM media (Invitrogen Life Technologies, Carlsbad Calif.) and cell layers were incubated for approximately 24 hours in 20% O2, 5% CO2 at 37° C. Compound of the invention (one of compounds A to O) or DMSO (0.5 to 1%) was then added to existing medium, and incubation was continued overnight.\nConditioned media collected from cell cultures grown as in Example 1 was analyzed for vascular endothelial growth factor (VEGF) expression using a QUANTIKINE immunoassay (R&D Systems) according to the manufacturer's instructions. […] Values on the y-axis represent fold-induction relative to control and are reported on a log2 scale, such that a value of 1 represents 2-fold induction."}, "aldolase": {"system": "aldolase", "settings": "293A cells", "quoted_text": "Alternatively, human cells derived from adenovirus-transformed fetal kidney epithelium (293A) were cultured in DMEM, 5% FBS, 1% Penicillin-Streptomycin at 37° C. and 10% CO2. […] Culture supernatant was then removed, the plates were placed on ice, lysis buffer (LB)-1 was added and the cells were harvested by scraping. The scraped cells were collected and incubated for 15 minutes on ice followed by centrifugation at 3000 g for 5 minutes at 4° C. The supernatant, which represents the cytosolic fraction, was collected and cytosolic proteins were separated under denaturing and reducing conditions using SDS polyacrylamide gels that were loaded with equal amounts of protein per lane.\nGel electrophoresis was conducted at 150 V for 2 hours, and after SDS-PAGE the proteins were transferred to a PVDF membrane for 1.5 hours at 400 mA at 4° C. The membrane was then incubated in blocking buffer, washed once with T-TBS, and then anti-aldolase antibody diluted to working concentration in blocking buffer was added and the blots were incubated over night with gentle agitation at 4° C. The membrane was then washed 4 times with T-TBS, followed by incubation for one hour at room temperature with blocking buffer containing labeled secondary antibody. The membrane was then washed four times with T-TBS. […]"}, "[5]": {"system": "Wistar rats, myocardial infarction", "settings": "one week after surgery", "protocol": "Male Wistar rats (100-110 g), aged 4-5 weeks, were kept on a regular diet and a 12 hour day-night cycle. […] Animals were treated for two days prior to surgery and for one week following surgery. […] Ligation of the left anterior descending coronary artery was performed in artificially ventilated animals after left thoracotomy. Animals were sacrificed one week after surgery and echocardiography was performed. Fractional shortening, end-diastolic diameters, and end-systolic diameters were determined in a blinded fashion."}}}
{"smiles": "O=[N+]([O-])c1ccnc2c(O)cccc12", "note": "[Compound E, 4-nitro-quinolin-8-ol]", "values": [{"measurement": "VEGF expression in kidney (FIG. 6A)", "setting": "[1]", "value": "increased VEGF expression"}]}
{"smiles": "COc1cccnc1C(=O)NCC(=O)O", "note": "[Compound P, [(3-methoxy-pyridine-2-carbonyl)-amino]-acetic acid]", "values": [{"measurement": "ALT (serum alanine transaminase)", "setting": "[2]", "value": "59.0 ± 29.5", "unit": "U/L"}, {"measurement": "AP (serum alkaline phosphatase)", "setting": "[2]", "value": "195 ± 72.7", "unit": "U/L"}, {"measurement": "BR (serum bilirubin)", "setting": "[2]", "value": "2.83 ± 2.21", "unit": "µmol/L"}, {"measurement": "BW (body weight)", "setting": "[2]", "value": "373 ± 38.9", "unit": "g"}, {"measurement": "tBA (serum total bile acids)", "setting": "[2]", "value": "40.8 ± 51.4", "unit": "µmol/L"}, {"measurement": "decrease in serum level of ALT in the treated group relative to the untreated group", "setting": "[3]", "value": 43, "unit": "%"}, {"measurement": "decrease in serum level of AP in the treated group relative to the untreated group", "setting": "[3]", "value": 65, "unit": "%"}, {"measurement": "decrease in serum level of BR in the treated group relative to the untreated group", "setting": "[3]", "value": 64, "unit": "%"}, {"measurement": "decrease in serum level of tBA in the treated group relative to the untreated group", "setting": "[3]", "value": 65, "unit": "%"}]}
{"smiles": "COc1ccc(CCN(CCC(=O)NO)S(=O)(=O)c2ccc(NC(=O)N(Cc3ccccc3)Cc3ccccc3)cc2)cc1", "note": "[Compound C, 3-{[4-(3,3-dibenzyl-ureido)-benzenesulfonyl]-[2-(4-methoxy-phenyl)-ethyl]-amino}-N-hydroxy-propionamide]", "values": [{"measurement": "VEGF expression in conditioned media (FIG. 4A)", "setting": "[4]", "value": "increase in VEGF expression"}]}
{"smiles": "O=C(O)CNC(=O)c1nc(Cl)c2ccccc2c1O", "note": "[Compound B, N-((1-chloro-4-hydroxy-isoquinoline-3-carbonyl)-amino)-acetic acid]", "values": [{"measurement": "expression of aldolase over time (FIG. 4B)", "setting": "aldolase", "value": "increased expression of aldolase"}, {"measurement": "increase in end-diastolic diameter over sham operated animals", "setting": "[5]", "value": 18, "unit": "%"}, {"measurement": "increase in left ventricular end-systolic diameter over sham operated animals", "setting": "[5]", "value": "no increase"}, {"measurement": "fractional shortening (FIG. 12A)", "setting": "[5]; 50 mg/kg oral gavage two times per day from two days prior to surgery", "value": 41, "unit": "%"}, {"measurement": "VEGF expression in conditioned media (FIG. 4A)", "setting": "[4]", "value": "increase in VEGF expression"}, {"measurement": "VEGF expression in kidney (FIG. 6A)", "setting": "[1]", "value": "increased VEGF expression"}]}
{"smiles": "CC(C)Oc1ccc2nc(C(=O)NCC(=O)O)c(O)cc2c1", "note": "[Compound H, N-((3-hydroxy-6-isopropoxy-quinoline-2-carbonyl)-amino)-acetic acid]", "values": [{"measurement": "VEGF expression in conditioned media (FIG. 4A)", "setting": "[4]", "value": "increase in VEGF expression"}]}
{"smiles": "COC(=O)CNC(=O)c1nc(Cl)c2cc(OCc3ccccc3)ccc2c1O", "note": "[Compound K, ((7-benzyloxy-1-chloro-4-hydroxy-isoquinoline-3-carbonyl)-amino)-acetic acid methyl ester]", "values": [{"measurement": "VEGF expression in conditioned media (FIG. 4A)", "setting": "[4]", "value": "increase in VEGF expression"}]}
{"smiles": "COc1cc2cccnc2c2[nH]cc(C(=O)O)c(=O)c12", "note": "[Compound Q, 5-methoxy-4-oxo-1,4-dihydro-[1,10]phenanthroline-3-carboxylic acid]", "values": [{"measurement": "VEGF expression in conditioned media (FIG. 4A)", "setting": "[4]", "value": "increase in VEGF expression"}]}
{"smiles": "O=C(O)CNC(=O)c1nc(Cl)c2cc(OCc3ccccc3)ccc2c1O", "note": "[Compound L, N-((7-benzyloxy-1-chloro-4-hydroxy-isoquinoline-3-carbonyl)-amino)-acetic acid]", "values": [{"measurement": "VEGF expression in conditioned media (FIG. 4A)", "setting": "[4]", "value": "increase in VEGF expression"}]}
